According to patent publication US20160108049A1 (TAKEDA Gmbh, priority 2011, published 2016):

Assays:
human PDE5 = biological target: T1, human PDE5 (Homo sapiens, UniProt O76074); assay: Inhibition of PDE5 activity (platelet lysate, SPA assay); assay type: biochemical; settings: 0.5 μM cGMP, read-out: PDE5 Inhibitory values measured as -logIC50 (converted)
T1 construct: from tissue; host or cells: human platelets from fresh donor blood (platelet lysate)
Method in brief: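 Human platelet lysate (10,000 g supernatant) served as PDE5 source, with 1 μM motapizone and 10 nM PDE2 inhibitor added, in Tris pH 7.4, 5 mM Mg2+, BSA. Substrate 0.5 μM [3H]cGMP, 10–20% conversion; 5 min preincubation then 15 min at 37 °C, stopped by SPA beads with IBMX. IC50 by non-linear regression.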

PDE4B1 = biological target: T2, PDE4B1 (Homo sapiens, UniProt Q07343); assay: Inhibition of PDE4 activity (PDE4B1, SPA assay); assay type: biochemical; settings: recombinant PDE4B1, 0.5 μM cAMP; read-out: PDE4B1 Inhibitory values measured as -logIC50 (converted)
T2 construct: made in house; host or cells: SF21 insect cells (baculovirus; virus made in SF9 cells, pCR-Bac vector)
T2 sequence (Q07343 whole entry): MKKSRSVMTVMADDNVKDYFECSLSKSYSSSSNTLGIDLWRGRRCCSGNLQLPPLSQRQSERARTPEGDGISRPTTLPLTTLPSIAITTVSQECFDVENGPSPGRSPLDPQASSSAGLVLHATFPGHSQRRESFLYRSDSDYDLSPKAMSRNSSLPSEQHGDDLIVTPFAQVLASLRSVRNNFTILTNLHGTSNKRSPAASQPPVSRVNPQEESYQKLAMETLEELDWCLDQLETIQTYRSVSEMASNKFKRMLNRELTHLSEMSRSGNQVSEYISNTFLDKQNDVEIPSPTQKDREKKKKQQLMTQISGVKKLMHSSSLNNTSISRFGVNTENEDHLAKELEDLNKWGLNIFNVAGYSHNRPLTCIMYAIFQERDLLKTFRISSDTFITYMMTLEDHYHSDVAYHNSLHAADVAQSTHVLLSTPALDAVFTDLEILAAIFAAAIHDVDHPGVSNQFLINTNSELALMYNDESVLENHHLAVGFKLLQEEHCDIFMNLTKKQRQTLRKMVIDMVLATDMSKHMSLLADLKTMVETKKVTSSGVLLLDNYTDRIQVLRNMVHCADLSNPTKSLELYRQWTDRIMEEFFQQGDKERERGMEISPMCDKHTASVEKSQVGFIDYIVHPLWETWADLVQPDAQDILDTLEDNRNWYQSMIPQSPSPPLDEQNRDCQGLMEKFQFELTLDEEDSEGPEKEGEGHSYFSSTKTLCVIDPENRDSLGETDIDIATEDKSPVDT
Method in brief: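 Baculovirus-expressed enzyme from SF21 cell 1000×g supernatant; substrate 0.5 μM [3H]cAMP in 20 mM Tris pH 7.4, 5 mM Mg2+, 0.1 mg/ml BSA, 10-20% conversion. 5 min preincubation at 37 °C, 15 min reaction, stopped by SPA beads with IBMX; IC50 by non-linear regression.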

Row | SMILES | IC50 (human PDE5) | IC50 (PDE4B1)
1 | COc1ccc(C2=NN(C3CCN(C(=O)[C@H](CCC(=O)N4CCCCC4)NC(=O)c4c[nH]c5c(-c6c(OCC7CC7)ccc7c6OCO7)ncnc45)CC3)C(=O)[C@@H]3CCCC[C@H]23)cc1OC [Example 79, 4-[5-(cyclopropylmethoxy)-1,3-benzodioxol-4-yl]-N-[(2S)-1-{4-[(4aS,8aR)-4-(3,4-dimethoxyphenyl)-1-oxo-4a,5,6,7,8,8a-hexahydrophthalazin-2(1H)-yl]piperidin-1-yl}-1,5-dioxo-5-(piperidin-1-yl)pentan-2-yl]-5H-pyrrolo[3,2-d]pyrimidine-7-carboxamide] | 1 to 10 nM | 1 to 10 nM
2 | COc1ccc(C2=NN(C3CCN(C(=O)[C@@H](Cc4ccccc4Cl)NC(=O)c4c[nH]c5c(-c6c(OCC7CC7)ccc7c6OCO7)ncnc45)CC3)C(=O)[C@@H]3CCCC[C@H]23)cc1OC [Example 35, N-[(2R)-3-(2-chlorophenyl)-1-{4-[(4aS,8aR)-4-(3,4-dimethoxyphenyl)-1-oxo-4a,5,6,7,8,8a-hexahydrophthalazin-2(1H)-yl]piperidin-1-yl}-1-oxopropan-2-yl]-4-[5-(cyclopropylmethoxy)-1,3-benzodioxol-4-yl]-5H-pyrrolo[3,2-d]pyrimidine-7-carboxamide] | < 1 nM | < 1 nM
3 | COc1cc(-c2ncnc3c(C(=O)N[C@H](Cc4ccccc4)C(=O)N4CCC(N5N=C(c6ccc(OC)c(OC)c6)[C@H]6CCCC[C@H]6C5=O)CC4)c[nH]c23)c(OCC2CC2)cc1F [Example 24, 4-[2-(cyclopropylmethoxy)-4-fluoro-5-methoxyphenyl]-N-[(2R)-1-{4-[(4aS,8aR)-4-(3,4-dimethoxyphenyl)-1-oxo-4a,5,6,7,8,8a-hexahydrophthalazin-2(1H)-yl]piperidin-1-yl}-1-oxo-3-phenylpropan-2-yl]-5H-pyrrolo[3,2-d]pyrimidine-7-carboxamide] | 1 to 10 nM | 1 to 10 nM
4 | COc1ccc(C2=NN(C3CCN(C(=O)[C@H](Cc4ccccc4)NC(=O)c4c[nH]c5c(-c6c(OCC7CC7)ccc7c6OCO7)ncnc45)CC3)C(=O)[C@H]3CCCC[C@@H]23)cc1OC [Example 44, 4-[5-(cyclopropylmethoxy)-1,3-benzodioxol-4-yl]-N-[(2S)-1-{4-[(4aR,8aS)-4-(3,4-dimethoxyphenyl)-1-oxo-4a,5,6,7,8,8a-hexahydrophthalazin-2(1H)-yl]piperidin-1-yl}-1-oxo-3-phenylpropan-2-yl]-5H-pyrrolo[3,2-d]pyrimidine-7-carboxamide] | 1 to 10 nM | > 10 nM
5 | COc1ccc(C2=NN(C3CCN(C(=O)[C@@H](Cc4ccc(C(C)(C)C)cc4)NC(=O)c4c[nH]c5c(-c6c(OCC7CC7)ccc7c6OCO7)ncnc45)CC3)C(=O)[C@@H]3CCCC[C@H]23)cc1OC [Example 6, N-[(2R)-3-(4-tert-butylphenyl)-1-{4-[(4aS,8aR)-4-(3,4-dimethoxyphenyl)-1-oxo-4a,5,6,7,8,8a-hexahydrophthalazin-2(1H)-yl]piperidin-1-yl}-1-oxopropan-2-yl]-4-[5-(cyclopropylmethoxy)-1,3-benzodioxol-4-yl]-5H-pyrrolo[3,2-d]pyrimidine-7-carboxamide] | 1 to 10 nM | 1 to 10 nM
6 | COc1ccc(C2=NN(C3CCN(C(=O)[C@H](Cc4ccccc4)NC(=O)c4c[nH]c5c(-c6c(OCC7CC7)ccc7c6OCO7)ncnc45)CC3)C(=O)[C@@H]3CCCC[C@H]23)cc1OC [Example 36, 4-[5-(cyclopropylmethoxy)-1,3-benzodioxol-4-yl]-N-[(2S)-1-{4-[(4aS,8aR)-4-(3,4-dimethoxyphenyl)-1-oxo-4a,5,6,7,8,8a-hexahydrophthalazin-2(1H)-yl]piperidin-1-yl}-1-oxo-3-phenylpropan-2-yl]-5H-pyrrolo[3,2-d]pyrimidine-7-carboxamide] | 1 to 10 nM | 1 to 10 nM

Now from value to molecule:

Row | IC50 (human PDE5) | IC50 (PDE4B1) | SMILES
7 | 1 to 10 nM | 1 to 10 nM | COc1ccc(C2=NN(C3CCN(C(=O)[C@H](NC(=O)c4c(C)[nH]c5c(-c6c(OCC7CC7)ccc7c6OCO7)ncnc45)C(C)C)CC3)C(=O)[C@@H]3CCCC[C@H]23)cc1OC [Example 120, 4-[5-(cyclopropylmethoxy)-1,3-benzodioxol-4-yl]-N-[(2R)-1-{4-[(4aS,8aR)-4-(3,4-dimethoxyphenyl)-1-oxo-4a,5,6,7,8,8a-hexahydrophthalazin-2(1H)-yl]piperidin-1-yl}-3-methyl-1-oxobutan-2-yl]-6-methyl-5H-pyrrolo[3,2-d]pyrimidine-7-carboxamide]
8 | < 1 nM | < 1 nM | COc1ccc(C2=NN(C3CCN(C(=O)[C@H](Cc4cccnc4)NC(=O)c4c(C)[nH]c5c(-c6c(OCC7CC7)ccc7c6OCO7)ncnc45)CC3)C(=O)[C@@H]3CCCC[C@H]23)cc1OC [Example 42, 4-[5-(cyclopropylmethoxy)-1,3-benzodioxol-4-yl]-N-[(2S)-1-{4-[(4aS,8aR)-4-(3,4-dimethoxyphenyl)-1-oxo-4a,5,6,7,8,8a-hexahydrophthalazin-2(1H)-yl]piperidin-1-yl}-1-oxo-3-(pyridin-3-yl)propan-2-yl]-6-methyl-5H-pyrrolo[3,2-d]pyrimidine-7-carboxamide]
9 | < 1 nM | 1 to 10 nM | COc1ccc(C2=NN(C3CCN(C(=O)[C@H](Cc4ccncc4)NC(=O)c4c(C)[nH]c5c(-c6c(OCC7CC7)ccc7c6OCO7)ncnc45)CC3)C(=O)[C@@H]3CCCC[C@H]23)cc1OC [Example 40, 4-[5-(cyclopropylmethoxy)-1,3-benzodioxol-4-yl]-N-[(2S)-1-{4-[(4aS,8aR)-4-(3,4-dimethoxyphenyl)-1-oxo-4a,5,6,7,8,8a-hexahydrophthalazin-2(1H)-yl]piperidin-1-yl}-1-oxo-3-(pyridin-4-yl)propan-2-yl]-6-methyl-5H-pyrrolo[3,2-d]pyrimidine-7-carboxamide]
10 | < 1 nM | < 1 nM | COc1ccc(C2=NN(C3CCN(C(=O)C(Cc4c[nH]c5ccccc45)NC(=O)c4c[nH]c5c(-c6c(OCC7CC7)ccc7c6OCO7)ncnc45)CC3)C(=O)C3CCCCC23)cc1OC [Example 92, 4-[5-(cyclopropylmethoxy)-1,3-benzodioxol-4-yl]-N-[(2S)-1-{4-[(4aS,8aR)-4-(3,4-dimethoxyphenyl)-1-oxo-4^a,5,6,7,8,8^a-hexahydrophthalazin-2(1H)-yl]piperidin-1-yl}-3-(1H-indol-3-yl)-1-oxopropan-2-yl]-5H-pyrrolo[3,2-d]pyrimidine-7-carboxamide]
11 | 1 to 10 nM | 1 to 10 nM | COc1ccc(C2=NN(C3CCN(C(=O)[C@@H](Cc4ccccc4)NC(=O)c4c(C)[nH]c5c(-c6c(OCC7CC7)ccc7c6OCO7)ncnc45)CC3)C(=O)C3(CCCC3)C2)cc1OC [Example 124, 4-[5-(cyclopropylmethoxy)-1,3-benzodioxol-4-yl]-N-[(2R)-1-{4-[9-(3,4-dimethoxyphenyl)-6-oxo-7,8-diazaspiro[4.5]dec-8-en-7-yl]piperidin-1-yl}-1-oxo-3-phenylpropan-2-yl]-6-methyl-5H-pyrrolo[3,2-d]pyrimidine-7-carboxamide]
12 | 1 to 10 nM | < 1 nM | COc1ccc(C2=NN(C3CCN(C(=O)CNC(=O)c4c[nH]c5c(-c6c(OCC7CC7)ccc7c6OCO7)ncnc45)CC3)C(=O)[C@@H]3CCCC[C@H]23)cc1OC [Example 59, 4-[5-(cyclopropylmethoxy)-1,3-benzodioxol-4-yl]-N-(2-{4-[(4aS,8aR)-4-(3,4-dimethoxyphenyl)-1-oxo-4a,5,6,7,8,8a-hexahydrophthalazin-2(1H)-yl]piperidin-1-yl}-2-oxoethyl)-5H-pyrrolo[3,2-d]pyrimidine-7-carboxamide]
13 | 1 to 10 nM | 1 to 10 nM | COc1ccc(C2=NN(C3CCN(C(=O)[C@H](Cc4cccc(C)c4)NC(=O)c4c(C)[nH]c5c(-c6c(OCC7CC7)ccc7c6OCO7)ncnc45)CC3)C(=O)[C@@H]3CCCC[C@H]23)cc1OC [Example 4, 4-[5-(cyclopropylmethoxy)-1,3-benzodioxol-4-yl]-N-[(2S)-1-{4-[(4aS,8aR)-4-(3,4-dimethoxyphenyl)-1-oxo-4a,5,6,7,8,8a-hexahydrophthalazin-2(1H)-yl]piperidin-1-yl}-3-(3-methylphenyl)-1-oxopropan-2-yl]-6-methyl-5H-pyrrolo[3,2-d]pyrimidine-7-carboxamide]
